Measured values published in patent EP2045266A1, “Methods for treating and diagnosing a cancer secreting cath-D or Alzheimer's disease” (INSERM (Institut National de la Santé et de la Recherche …, priority 2007, dated 2009).
Non-standard residues stand in square brackets, D forms with d. Residues, ends and D or L forms follow the SMILES beside them. *: point of attachment. Sta = CC(C)C[C@H](N)[C@@H](O)CC(=O)O; Isovaleryl = CC(C)CC(=O)*

Key:
pro-cath-D = target: T1, pro-cath-D (Homo sapiens, UniProt P07339); experiment: GST pull-down: competition for binding of LRP1β (1-476) to GST-pro-cath-D; conditions: radio-labelled LRP1β (1-476), beads with GST-cath-D/52K, increasing concentration of the peptide; Fig. 2C
T1 construct: the 52, 34, 14 and 4 kDa cath-D fragments were expressed as GST fusion proteins; made in house; host or cells: Escherichia coli BL21 (GST fusion)
T1 sequence (P07339 21-412): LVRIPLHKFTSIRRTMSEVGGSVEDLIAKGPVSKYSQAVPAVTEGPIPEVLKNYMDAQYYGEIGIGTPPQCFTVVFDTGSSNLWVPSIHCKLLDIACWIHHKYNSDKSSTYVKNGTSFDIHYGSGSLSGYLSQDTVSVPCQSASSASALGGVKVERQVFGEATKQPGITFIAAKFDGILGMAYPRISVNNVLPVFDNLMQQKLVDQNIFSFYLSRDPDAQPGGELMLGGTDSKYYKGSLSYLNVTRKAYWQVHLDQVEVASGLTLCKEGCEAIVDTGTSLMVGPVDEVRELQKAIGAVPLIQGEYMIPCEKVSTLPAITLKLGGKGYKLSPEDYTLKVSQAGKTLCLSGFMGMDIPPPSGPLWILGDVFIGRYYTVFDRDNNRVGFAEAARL
Experimental: • (A) Schematic representation of GST-LRP1β fragments. Shorter GST-LRP1β fragments (F4, F6-F8) were derived from GST-LRP1β (307-479) (F0). The F4 (349-394) GST-LRP1β fragment was then sub-divided into shorter fragments (F5, F9-13). • (B) Binding of pro-cath-D to GST-LRP1β fragments. Radio-labelled pro-cath-D was incubated with beads containing GST-LRP1β fragments or GST. GST proteins bound to beads were stained by Coomassie (panels a, c) and bound pro-cath-D was detected by autoradiography (panels b, d). • (C) Effect of the (349-397) LRP1 peptide for the binding of the extracellular domain of LRP1β (1-476) to pro-cath-D. Schematic representation and numbering of the EGF-like repeats 16 to 22 present in the extracellular domain of LRP1β is shown in panel a. Radio-labelled extracellular domain of LRP1β (1-476) was incubated with beads containing GST-cath-D/52K in the absence or presence of increasing concentration of the (349-397) LRP1 peptide (panel b). GST proteins stained by Coomassie are shown in left panel and bound LRP1β (1-476) in right panel .
GST pull-down assays. [^35S]methionine-labelled pro-cath-D or LRP1β(1-476) were obtained by transcription and translation of pcDNA3.1(-)cath-D or pcONA3.1(+)LRP1β extracellular domain(1-476) expression plasmids, respectively, using the TNT^T7-coupled reticulocyte lysate system (Promega). […]

[1] = target: auto-activated pro-cath-D (Homo sapiens, UniProt P07339); experiment: Cleavage of the LRP1 [349-397] peptide by auto-activated pro-cath-D (HPLC, NH2-terminal sequencing); type: biochemical; conditions: pro-cath-D 500 ng auto-activated at pH 3.5 for 30 min, 2 h with 50 µM peptide at pH 3.5
auto-activated pro-cath-D, sequence (P07339 65-412): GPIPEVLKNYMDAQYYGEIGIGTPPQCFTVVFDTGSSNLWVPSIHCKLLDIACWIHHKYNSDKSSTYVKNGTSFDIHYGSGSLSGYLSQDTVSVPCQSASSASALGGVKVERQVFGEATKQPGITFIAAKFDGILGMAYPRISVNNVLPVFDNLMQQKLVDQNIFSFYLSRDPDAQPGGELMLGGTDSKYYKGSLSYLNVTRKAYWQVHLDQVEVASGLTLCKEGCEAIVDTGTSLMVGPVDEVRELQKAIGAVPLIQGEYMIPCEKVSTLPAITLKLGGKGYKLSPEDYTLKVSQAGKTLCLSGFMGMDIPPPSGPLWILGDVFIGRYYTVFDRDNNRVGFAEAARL
Excerpt: (§1) • (A) Shedding of LRP1 β chain ectodomain. SEAP activity was quantified in the medium of COS cells transiently transfected with SEAP-LRP1β and β-galactosidase vectors in the absence or presence of cath-D vector (panel a). The mean ± SD of 4 independent determinations with both transfections and measurements carried in duplicate is shown *, p<0.0025 versus control (Student's t-test). […] A representative experiment from a transfection performed in duplicate is shown. Similar results were obtained in another independent experiment. • (B) Cleavage of the LRP1 [349-397] peptide by auto-activated pro-cath-D. Pro-cath-D (500 ng), auto-activated at pH 3.5 for 30 min, was incubated for 2 h with 50 µM of LRP1 [349-397] peptide at pH 3.5. Cleaved peptides were resolved by reverse-phase HPLC and subjected to NH2-terminal sequence analysis. Arrows indicate the 3 cleavage sites. • (C) Production of LRP1 β carboxyl-terminal fragment. COS cells, transfected with Myc-LRP1β in the absence or presence of wild-type or D231 N cath-D, were treated with DAPT (1 µM) or DMSO for 24 h. Cells were lysed and the full-length Myc-LRP1β and its carboxy-terminal fragment (LRP1β-CTF) were isolated by immunoprecipitation and visualized by immunoblotting with the monoclonal antibody 11H4. *, p<0.025 versus Luc siRNA HMF cells; **, p<0.0025 versus Luc siRNA HMF cells (Student's t-test).

LRP1β-CTF [2] = experiment: Production of LRP1β carboxyl-terminal fragment in COS cells (immunoprecipitation and immunoblotting); type: cell-based; conditions: COS cells transfected with Myc-LRP1β, DAPT 1 µM for 24 h; Fig. 5C
Excerpt: as §1, with “Cells were lysed and the full-length Myc-LRP1β and its carboxy-terminal fragment (LRP1β-CTF) were isolated by immunoprecipitation and visualized by immunoblotting with the monoclonal antibody 11H4. *, p<0.025 versus Luc siRNA HMF cells; **, p<0.0025 versus Luc siRNA HMF cells (Student's t-test).” left out
(§2) Immunoblotting. […] Equal amounts of protein (100 µg) from cell extracts quantitated by the Bradford assay, or equal volumes (80 µl) of conditioned media, were separated by SDS-PAGE on a 7.5 % gel for anti-LRP1β immunoblotting or on a 12 % gel for anti-cath-D immuno-blotting. […]

LRP1β-CTF [3] = experiment: Production of LRP1β-CTF and shedding of LRP1β in HMF fibroblasts; type: cell-based, human; conditions: DAPT 1 µM, 24 h, Fig. 6B panel a
Experimental: (§3) • (A) Pro-cath-D is internalized in part by LRP1. Conditioned media containing labelled pro-cath-D was produced by incubating cath-D expressing 3Y1-Ad12 cells with [S^35]methionine and [S^35]cysteine for 24 h. HMF fibroblasts were transiently transfected with either Luc siRNA or LRP1 siRNA1 and endocytosis of labelled pro-cath-D was performed 48 h post-transfection. For endocytosis, siRNAs-transfected HMF fibroblasts were incubated for 3 h (panel a) or for 18h (panel c) with conditioned medium containing labelled pro-cath-D in the absence or presence of 10 mM M6P. Cell lysates containing endocytosed labelled cath-D were analyzed by SDS-PAGE after immunoprecipitation with M1G8 anti-cath-D antibody (panels a and c). LRP1β expression was monitored in HMF fibroblasts by immunoblotting 48 h post-transfection with either Luc or LRP1 siRNAs (panels b and d). ßactin was used as a loading control. […] LRP1β shedded in the media of HMF fibroblasts after 24 h in the presence of DAPT (1 µM) was detected by immmunoblotting with the monoclonal antibody #3501 directed against the extracellular LRP1 β chain (panel b). […]
as §2

HMF fibroblasts = experiment: Endocytosis of labelled pro-cath-D in HMF fibroblasts; type: cell-based; conditions: Homo sapiens, Fibroblast, over 3 h, 10 mM M6P, read-out: inhibition of pro-cath-D internalization
Experimental: as §3

SEAP-LRP1β = experiment: LRP1 ectodomain secretion assay (SEAP activity in the medium); type: cell-based; conditions: cath-D expressing COS cells, pepstatin 100 µM; Fig. 5A panel b
Excerpt: as §1, with “Cells were lysed and the full-length Myc-LRP1β and its carboxy-terminal fragment (LRP1β-CTF) were isolated by immunoprecipitation and visualized by immunoblotting with the monoclonal antibody 11H4. *, p<0.025 versus Luc siRNA HMF cells; **, p<0.0025 versus Luc siRNA HMF cells (Student's t-test).” left out
LRP1 ectodomain secretion assay. […] SEAP activity was normalized to […] activity measured by hydrolysis of o-nitrophenyl-β-D-galactopyranoside in cells lysed in the reporter lysis buffer (Promega).

With “49-mer: polypeptide sequence of 49 amino acids corresponding to the 349-397 fragment of the extra-cellular LRP1 β chain, SEQ ID NO: 5 (CRCLPGFLGDRCQYRQCSGYCENFGTCQMAADGSRQCRCTAYFEGSRCE)” the “competition for the binding of LRP1β (1-476) to GST-pro-cath-D” value (pro-cath-D) was “competed efficiently” and the cleavage sites [1] was 3.

In the case of `C[C@H](NC(=O)Cc1cc(F)cc(F)c1)C(=O)N[C@H](C(=O)OC(C)(C)C)c1ccccc1` [DAPT], the “presence of LRP1β-CTF” value (LRP1β-CTF [2]) is reported as “strong increase” and the “level of membrane bound LRP1β-CTF” value (LRP1β-CTF [3]) is reported as “further increase”.

`O=C[C@@H](O)[C@@H](O)[C@H](O)[C@H](O)COP(=O)(O)O` [M6P, mannose-6-phosphate] gave an inhibition at 10000 µM (HMF fibroblasts) of 82%.

For `CC(C)CC(=O)N[C@H](C(=O)N[C@H](C(=O)N[C@@H](CC(C)C)[C@@H](O)CC(=O)N[C@@H](C)C(=O)N[C@@H](CC(C)C)[C@@H](O)CC(=O)O)C(C)C)C(C)C` [pepstatin A] (Isovaleryl-VV[Sta]A[Sta]-OH), the SEAP-LRP1β ectodomain shedding (SEAP-LRP1β) was “prevented”.
